Data from US9982005B2, “Macrolides and methods of their preparation and use” (President and Fellows of Harvard College, priority 2013, dated 2018).
≈ marks a conversion by molar mass, not a printed value. Read-outs that look alike come from different tables or passages of the source.

How the values were obtained:
Format in all cases: cell-based
[1] = test system: BS1723 B. subtilis BS168 WT wild type; assay: broth dilution MIC, B. subtilis BS1723; conditions: BS1723 B. subtilis BS168 WT wild type
Text: (§1) We have collected MIC data for a total of 50 novel macrolides that this platform has produced against over 21 unique strains of B. subtilis, E. coli, S. aureus, S. pneumoniae, and H. influenzae, including several multidrug-resistant strains, with a special focus on macrolide resistant mechanisms (vide supra). Azithromycin was included as a control macrolide. CLSI standard procedures for broth dilution MIC determination were used. […] These genotypes can be constitutive or inducible. The finding that C4-epi (unnatural) isomers of the “azaketolide” macrolide class have enhanced activities relative to C4 natural isomers is very exciting.

[2] = test system: SA101 S. aureus ATCC29213; assay: broth dilution MIC, S. aureus SA101
Text: as §1

EC878 E. coli tolC = assay: broth dilution MIC, E. coli EC878
Text: as §1

BS1725 B. subtilis ermC = assay: broth dilution MIC, B. subtilis BS1725
Text: as §1

EC882 E. coli imp = assay: broth dilution MIC, E. coli EC882
Text: as §1

EC107 E. coli ATCC25922 = assay: broth dilution MIC, E. coli EC107
Text: as §1

[3] = Bacillus subtilis, read-out: MIC
[4] = Staphylococcus aureus, ATCC29213, SA101 S. aureus ATCC29213, read-out: MIC
[5] = Bacillus subtilis, BS1725 B. subtilis ermC (+ery)
[6] = Bacillus subtilis, BS1725 B. subtilis ermC (−ery)
[7] = Escherichia coli, read-out: MIC

Row | Compound | MIC [1, 3] | MIC [2, 4] | MIC (EC878 E. coli tolC; Escherichia coli) | MIC (BS1725 B. subtilis ermC; [5]) | MIC (BS1725 B. subtilis ermC; [6]) | MIC (EC882 E. coli imp; Escherichia coli) | MIC (EC107 E. coli ATCC25922; [7]) | MIC [1] | MIC ([2]; SA101 S. aureus ATCC29213) | MIC (EC878 E. coli tolC) | MIC (BS1725 B. subtilis ermC; BS1725 B. subtilis ermC (+ery)) | MIC (BS1725 B. subtilis ermC; BS1725 B. subtilis ermC (−ery)) | MIC (EC882 E. coli imp) | MIC (EC107 E. coli ATCC25922)
1 | CC[C@H]1OC(=O)[C@H](C)C(=O)C[C@@H](O[C@@H]2OC(C)CC(N(C)C)C2O)[C@](C)(OC)C[C@@H](C)CN[C@H](C)[C@H]2N(CCCCn3cc(-c4cccnn4)nn3)C(=O)O[C@]12C (stereo partly shown) [FSM-10785] | > 32 µg/mL | > 32 µg/mL | 2 µg/mL (≈ 2.5 µM) | > 32 µg/mL | > 32 µg/mL | 1 µg/mL (≈ 1.25 µM) | > 32 µg/mL | – | – | – | – | – | – | –
2 | CC[C@H]1OC(=O)[C@H](C)C(=O)C[C@@H](O[C@@H]2OC(C)CC(N(C)C)C2O)[C@](C)(OC)C[C@@H](C)CN(C(C)=O)[C@H](C)[C@H]2N(CCCCn3cc(-c4ccccn4)nn3)C(=O)O[C@]12C (stereo partly shown) [FSM-10792] | > 32 µg/mL | > 32 µg/mL | 4 µg/mL (≈ 4.75 µM) | > 32 µg/mL | > 32 µg/mL | 1 µg/mL (≈ 1.19 µM) | > 32 µg/mL | – | – | – | – | – | – | –
3 | CC[C@H]1OC(=O)C(C)(F)C(=O)[C@@H](C)[C@@H](O[C@@H]2OC(C)CC(N(C)C)C2O)[C@](C)(OC)C[C@@H](C)CN[C@H](C)[C@H]2N(CCCCn3cc(-c4nc5ccccc5s4)nn3)C(=O)O[C@]12C (stereo partly shown) [FSM-20722] | 16 µg/mL (≈ 18 µM) | 8 µg/mL (≈ 9.01 µM) | 1 µg/mL (≈ 1.13 µM) | > 32 µg/mL | – | 0.5 µg/mL (≈ 0.563 µM) | > 32 µg/mL | – | – | – | – | – | – | –
4 | CC[C@H]1OC(=O)[C@H](C)C(=O)C[C@@H](O[C@@H]2OC(C)CC(N(C)C)C2O)[C@@](C)(OC)C[C@@H](C)CN[C@H](C)[C@H]2N(CCCCn3cc(-c4cccnn4)nn3)C(=O)O[C@]12C (stereo partly shown) [FSM-30506] | > 32 µg/mL | > 32 µg/mL | > 32 µg/mL | > 32 µg/mL | > 32 µg/mL | > 32 µg/mL | > 32 µg/mL | – | – | – | – | – | – | –
5 | CC[C@H]1OC(=O)[C@H](C)C(=O)C[C@@H](O[C@@H]2OC(C)CC(N(C)C)C2O)[C@](C)(OC)C[C@@H](C)CN[C@H](C)[C@H]2N(CCCCn3cc(-c4ccccn4)nn3)C(=O)O[C@]12C (stereo partly shown) [FSM-10786] | > 32 µg/mL | > 32 µg/mL | 2 µg/mL (≈ 2.5 µM) | > 32 µg/mL | > 32 µg/mL | 0.25 µg/mL (≈ 0.312 µM) | > 32 µg/mL | – | – | – | – | – | – | –
6 | CC[C@H]1OC(=O)[C@H](C)C(=O)C[C@@H](O[C@@H]2OC(C)CC(N(C)C)C2O)[C@@](C)(OC)C[C@@H](C)CN(C(C)=O)[C@H](C)[C@H]2N(CCCCn3cc(-c4cccnn4)nn3)C(=O)O[C@]12C (stereo partly shown) [FSM-30513] | > 32 µg/mL | > 32 µg/mL | > 32 µg/mL | > 32 µg/mL | > 32 µg/mL | > 32 µg/mL | > 32 µg/mL | – | – | – | – | – | – | –
7 | CC[C@H]1OC(=O)[C@H](C)C(=O)C[C@@H](O[C@@H]2OC(C)CC(N(C)C)C2O)[C@@](C)(OC)C[C@@H](C)CN(C(C)=O)[C@H](C)[C@H]2N(CCCCn3cc(-c4nc5ccccc5s4)nn3)C(=O)O[C@]12C (stereo partly shown) [FSM-30514] | > 32 µg/mL | > 32 µg/mL | > 32 µg/mL | > 32 µg/mL | > 32 µg/mL | > 32 µg/mL | > 32 µg/mL | – | – | – | – | – | – | –
8 | CC[C@H]1OC(=O)C(C)(F)C(=O)[C@@H](C)[C@@H](O[C@@H]2OC(C)CC(N(C)C)C2O)[C@](C)(OC)C[C@@H](C)CN(C)[C@H](C)[C@H]2N(CCCCn3cc(-c4nccs4)nn3)C(=O)O[C@]12C (stereo partly shown) [FSM-20717] | – | – | – | – | – | – | – | 16 µg/mL (≈ 18.8 µM) | 16 µg/mL (≈ 18.8 µM) | 1 µg/mL (≈ 1.17 µM) | >32 µg/mL | 8 µg/mL (≈ 9.39 µM) | 1 µg/mL (≈ 1.17 µM) | >32 µg/mL
